According to publication PMC7408547, “Bivalent Inhibitor with Selectivity for Trimeric MMP-9 Amplifies Neutrophil Chemotaxis and Enables Functional Studies on MMP-9 Proteoforms” (Cells, 2020):
pIC50: −log10 of the molar value.

Key:
[1] = molecular target: T1, recombinant human MMP-9 monomers (Homo sapiens, UniProt P14780); assay: Fluorogenic peptide (OmniMMP) degradation assay, recombinant MMP-9 monomers; type: biochemical; conditions: recombinant human MMP-9 (Sf9) mono
T1 construct: made in house; host or cells: Sf9 insect cells
T1 sequence (P14780 107-707 limits assumed): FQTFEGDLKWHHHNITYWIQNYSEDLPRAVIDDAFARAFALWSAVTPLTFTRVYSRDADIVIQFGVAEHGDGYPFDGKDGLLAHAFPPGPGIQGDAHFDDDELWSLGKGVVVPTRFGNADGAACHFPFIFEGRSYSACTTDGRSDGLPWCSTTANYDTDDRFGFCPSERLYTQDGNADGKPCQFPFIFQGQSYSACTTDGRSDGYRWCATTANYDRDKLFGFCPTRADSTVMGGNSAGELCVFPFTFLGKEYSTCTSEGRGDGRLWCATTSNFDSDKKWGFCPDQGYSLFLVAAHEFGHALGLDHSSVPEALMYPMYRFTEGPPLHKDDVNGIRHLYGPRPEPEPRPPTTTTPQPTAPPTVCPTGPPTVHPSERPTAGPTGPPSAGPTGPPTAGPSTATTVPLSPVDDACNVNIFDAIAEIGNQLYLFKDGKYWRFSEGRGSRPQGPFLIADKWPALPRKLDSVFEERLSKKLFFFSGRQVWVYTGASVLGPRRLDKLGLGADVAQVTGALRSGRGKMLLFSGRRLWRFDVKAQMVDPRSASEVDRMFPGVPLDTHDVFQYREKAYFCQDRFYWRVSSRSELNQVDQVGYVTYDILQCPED
Experimental: Compounds 5 and 7 were synthesized as previously reported. Full-length human proMMP-9 was produced by recombinant expression in Sf9 insect cells and purified by gelatin-Sepharose chromatography as previously described. Stable full-length proMMP-9 monomers and trimers were separated by glycerol gradient ultracentrifugation as previously described. ProMMP-9 mixture and the separated monomers and trimers were activated by incubation with the catalytic domain of MMP-3 (cat. No. 444217, Merck Millipore, Darmstadt, Germany) as previously described. Activation of proMMP-9 was confirmed by a band shift of ±10 kDa, corresponding to the removal of the auto-inhibitory propeptide domain and by detection of gelatinolytic activity with a previously described gelatin degradation assay. MMP-9 monomers and trimers purified from human neutrophils were purchased (Cat. No. 444,231 and 444232, Sigma-Aldrich, St. Louis, MO, USA). Examples of sample purities and activations can be found in Supplementary Figure S1. Recombinant human proMMP-2 (CHO cell-derived), proMMP-3 (NS0 cell-derived), proMMP-7 (NS0 cell-derived) and proMMP-8 (NS0 cell-derived) were purchased from R & D systems (Minneapolis, MN, USA), dissolved in assay buffer (150 mM NaCl, 5 mM CaCl2, 0.01% Tween-20, 50 mM Tris, pH 7.4) to a concentration of 100 µg/mL and activated by incubation with 1 mM p-aminophenylmercuric acetate for, respectively, 1h, 6h, 2h and 1h. Activation of MMPs was confirmed by a band shift of approximately 10 kDa, corresponding to the removal of the propeptide domain. MMP-14/MT1-MMP (NS0 cell-derived) was also purchased from R & D systems (Minneapolis, MN, USA) and activated by incubation with recombinant human furin (cat. No. 1503-SE-010, R & D systems, Minneapolis, MO, USA) in activation buffer (50 mM Tris, 1 mM CaCl2, 0.5% Brij-35, pH 9) for 1.5 h and activity was tested in assay buffer (50 mM Tris, 3 mM CaCl2, 1 µM ZnCl2, pH 8.5). Active human neutrophil elastase (NE) was purchased from Abcam (Cambridge, UK) and for activity assays of NE the assay buffer was replaced by 200 mM Tris, pH 8.8. ADAM17/TACE (Sf 21 (baculovirus)-derived, R & D systems, Minneapolis, MO, USA) was diluted and evaluated in 25 mM Tris, 2.5 μM ZnCl2, 0.005% Brij-35, pH 9.0. All stocks of the compounds were evaluated for the presence of endotoxin using the EndoZyme II assay (Hyglos bioMérieux, Bernried am Starnberger See, Germany). Endotoxin levels in all concentrated stocks (2.5 mg/mL) were below the accepted limit of 0.5 EU/mL.
To determine the inhibition of gelatinolytic activity, we used a previously optimized gelatin degradation assay. […] […] […] BML-P126-0001, Enzo Life Sciences, Farmingdale, NY, USA) was used at a final concentration of 2.5 µg/mL. For ADAM17 the fluorogenic peptide Mca-PLAQAV-Dpa-RSSSR-NH2 (ES003, R & D systems, Minneapolis, MO, USA) and for neutrophil elastase the fluorogenic substrate MeOSuc-AAPV-AMC (cat. no. 324740, Merck Millipore, Darmstadt, Germany) were used. Proteolytic activity was determined by linear regression of the fluorescence curve and the percentage inhibition was calculated through comparison with the positive control (no inhibitors). When testing supernatants from human neutrophils, the assay was performed in the presence of 20 µM neutrophil elastase inhibitor (Elastase Inhibitor IV, Calbiochem, Darmstadt, Germany).

[2] = Ex vivo stability in mouse blood (remaining MMP-9 inhibitory activity); type: in vitro ADME; conditions: 500 µM in freshly isolated mouse blood, 37 °C; plasma and cell lysates
Experimental: Toxicity of compounds 5 and 7 was evaluated in vitro on the U-87 cell line. Briefly, U-87 cells were seeded in 96-well plates (cat. No. 92096, TPP Techno Plastic Products, Trasadingen, Switzerland) at 2000 cells/well in DMEM FluoroBrite containing 10% FBS and incubated for 24 h. Cells were washed and further grown in DMEM FluoroBrite with 5% KnockOut™ Serum Replacement (Gibco, Waltham, MA, USA). Compounds 5 and 7 were added to the wells in a 1:2 dilution series starting at 20 µM and ending at 0.16 µM. To evaluate the effect of the compound on cell growth, confluence was determined every hour for 17h using the Incucyte® S3 Live-Cell Analysis System (Sartorius, Göttingen, Germany). Next, cells were stained with the LIVE/DEAD™ Viability/Cytotoxicity Kit for mammalian cells (Invitrogen, Carlsbad, CA, USA; cat. # L3224) and cell viability was evaluated. Data were normalized to the mean confluence of wells containing no inhibitors. To measure the stability of the compounds, fresh blood was collected from heathy mice by cardiac puncture with a heparin-coated needle and syringe and 30UI/mL heparin was added. Next, compound 5, compound 7 or vehicle (DMSO) was added to the blood at a final concentration of 500 µM and incubated at 37 °C. […] Background inhibition was subtracted and results were expressed as percentage inhibition.

[3] = molecular target: T2, MMP-8/neutrophil collagenase (Homo sapiens, UniProt P22894); assay: MMP-8 OmniMMP peptide assay; type: biochemical; conditions: for pIC50: OmniMMP substrate peptide
T2 construct: purchased R & D systems; host or cells: NS0 cells
T2 sequence (P22894 101-467): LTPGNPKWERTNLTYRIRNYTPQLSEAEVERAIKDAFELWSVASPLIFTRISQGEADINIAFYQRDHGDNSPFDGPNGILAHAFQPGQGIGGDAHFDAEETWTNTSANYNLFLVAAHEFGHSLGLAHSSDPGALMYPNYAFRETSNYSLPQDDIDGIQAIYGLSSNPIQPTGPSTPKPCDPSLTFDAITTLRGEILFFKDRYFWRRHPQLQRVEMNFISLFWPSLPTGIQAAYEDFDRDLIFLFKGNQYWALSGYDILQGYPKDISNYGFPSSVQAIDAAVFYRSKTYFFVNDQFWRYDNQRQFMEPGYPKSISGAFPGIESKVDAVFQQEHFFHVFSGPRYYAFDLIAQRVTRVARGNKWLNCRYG
Experimental: Compounds 5 and 7 were synthesized as previously reported. Full-length human proMMP-9 was produced by recombinant expression in Sf9 insect cells and purified by gelatin-Sepharose chromatography as previously described. Stable full-length proMMP-9 monomers and trimers were separated by glycerol gradient ultracentrifugation as previously described. ProMMP-9 mixture and the separated monomers and trimers were activated by incubation with the catalytic domain of MMP-3 (cat. No. 444217, Merck Millipore, Darmstadt, Germany) as previously described. Activation of proMMP-9 was confirmed by a band shift of ±10 kDa, corresponding to the removal of the auto-inhibitory propeptide domain and by detection of gelatinolytic activity with a previously described gelatin degradation assay. MMP-9 monomers and trimers purified from human neutrophils were purchased (Cat. No. 444,231 and 444232, Sigma-Aldrich, St. Louis, MO, USA). Examples of sample purities and activations can be found in Supplementary Figure S1. […] ADAM17/TACE (Sf 21 (baculovirus)-derived, R & D systems, Minneapolis, MO, USA) was diluted and evaluated in 25 mM Tris, 2.5 μM ZnCl2, 0.005% Brij-35, pH 9.0. All stocks of the compounds were evaluated for the presence of endotoxin using the EndoZyme II assay (Hyglos bioMérieux, Bernried am Starnberger See, Germany). […]
To determine the inhibition of gelatinolytic activity, we used a previously optimized gelatin degradation assay. […] Next, dye-quenched gelatin (DQ™-gelatin, Invitrogen, Carlsbad, CA, USA) was added at a final concentration of 2.5 µg/mL and the increase in fluorescence over time was measured with the CLARIOstar microplate reader (BMG Labtech, Ortenberg, Germany). […] Proteolytic activity was determined by linear regression of the fluorescence curve and the percentage inhibition was calculated through comparison with the positive control (no inhibitors). […]

Compound | IC25 [1] [nM] | pIC50 [1] | IC75 [1] [nM] | ex vivo stability: remaining MMP-9 inhibitory activity [2] | pIC50 [3] | fold less inhibition of MMP-8 than of trimeric MMP-9 ([3]; peptide substrate)
CC(C)[C@H](C(=O)O)N(CCNC(=O)c1cccc(C(=O)NCCN([C@@H](C(=O)O)C(C)C)S(=O)(=O)c2ccc(-c3ccccc3)cc2)c1)S(=O)(=O)c1ccc(-c2ccccc2)cc1 [Compound 7] | 10.5 | 7.25 | 296 | remained detectable up to 24h later | 7.84 | more than 100 fold
CC(C)[C@H](C(=O)O)N(CCNC(=O)c1ccccc1)S(=O)(=O)c1ccc(-c2ccccc2)cc1 [Compound 5] | 232 | 6.14 | 2228 | remained detectable up to 24h later | 6.48 | 
